# Test results as given in patent publication US20030045580A1, “Ibuprofen containing active agent preparation” (priority 2000, published 2003).
# Test: Hardness (radial breaking force) of 200 mg, 9 mm compacts from active ingredient preparation vs physical mixture
# Assay type: physicochemical
# Conditions: 200 mg compacts, diameter 9 mm
# Protocol: The hardness of the round compacts means the radial breaking force.
# Various compositions of the novel active ingredient preparation were compressed under various pressures using a type EKO press supplied by Korsch, Berlin, to give 200 mg compacts with a diameter of 9 mm. For comparison therewith, the physical mixtures (PM) of the same composition were compressed under analogous conditions, and the hardnesses of the produced compacts were compared. Physical mixtures mean the dry mixture of ibuprofen with the particular binder.
# In contrast to the purely physical mixtures, the novel ibuprofen-containing active ingredient compositions result, even with low compressive forces, in compacts with hardnesses which are distinctly above the hardnesses of 25 N which are adequate for tablets.
smiles,measurement,setting,value
"CC(C)Cc1ccc(C(C)C(=O)O)cc1 (stereo not drawn) [0% (pure), 2-(4-isobutylphenyl)propionic acid]",Hardness with a compressive force of 4.7 to 5.3 kN,compressive force 4.7 to 5.3 kN,11.0 N
same,Hardness with a compressive force of 9.7 to 10.9 kN,compressive force 9.7 to 10.9 kN,10.8 N
same,Hardness with a compressive force of 20.1 to 21.1 kN,compressive force 20.1 to 21.1 kN,20.1 N
